This is an account of results in patent publication US8084649B2, “Herbicides” (Syngenta Crop Protection, inc., priority 2007, dated 2011).

What all share (format): in vivo
Test [1] concerns Setaria faberi (SETFA). In words: Post-emergence herbicidal activity, glasshouse pot test. To be noted: Setaria faberi, evaluated after 14 or 15 days, read-out: Post-emergence activity, SETFA (100=total damage to plant; 0=no damage to plant); for pest or weed control at 125 g/ha: rate 125 g/ha; for pest or weed control at 500 g/ha: rate 500 g/ha. As to the method:
(§1) Monocotyledonous and dicotyledonous test plants were sown in sterilised standard soil in pots. After cultivation for one day (pre-emergence) or after 10 days cultivation (post-emergence) under controlled conditions in a glasshouse, the plants were sprayed with an aqueous spray solution derived from the formulation of the technical active ingredient in 0.6 ml acetone and 45 ml formulation solution containing 10.6% Emulsogen EL (Registry number 61791-12-6), 42.2% N-methylpyrrolidone, 42.2% dipropylene glycol monomethyl ether (Registry number 34590-94-8) and 0.2% X-77 (Registry number 11097-66-8). The test plants were then grown in a greenhouse under optimum conditions until, 14 or 15 days later for post-emergence and 20 days for pre-emergence, the test was evaluated (100=total damage to plant; 0=no damage to plant). Alopecurus myosuroides (ALOMY), Avena fatua (AVEFA), Lolium perenne (LOLPE), Setaria faberi (SETFA), Digitaria sanguinalis (DIGSA), Echinochloa crus-galli (ECHCG) Post-Emergence Activity

Test [2] has as its system Alopecurus myosuroides (ALOMY). Described as above. To be noted: Alopecurus myosuroides, evaluated after 14 or 15 days, read-out: Post-emergence activity, ALOMY (100=total damage to plant; 0=no damage to plant); for pest or weed control at 125 g/ha: rate 125 g/ha; for pest or weed control at 500 g/ha: rate 500 g/ha. As to the method: as §1
Test [3] deals with Lolium perenne (LOLPE). The description is as above. To be noted: Lolium perenne, evaluated after 14 or 15 days, read-out: Post-emergence activity, LOLPE (100=total damage to plant; 0=no damage to plant); for pest or weed control at 125 g/ha: rate 125 g/ha; for pest or weed control at 500 g/ha: rate 500 g/ha. As for the experimental part: as §1
Test [4] relates to Digitaria sanguinalis (DIGSA). The test is described as above. To be noted: Digitaria sanguinalis, evaluated after 14 or 15 days, read-out: Post-emergence activity, DIGSA (100=total damage to plant; 0=no damage to plant); for pest or weed control at 125 g/ha: rate 125 g/ha; for pest or weed control at 500 g/ha: rate 500 g/ha. As to the method: as §1
Test [5] concerns Echinochloa crus-galli (ECHCG). The description is as above. To be noted: Echinochloa crus-galli, evaluated after 14 or 15 days, read-out: Post-emergence activity, ECHCG (100=total damage to plant; 0=no damage to plant); for pest or weed control at 125 g/ha: rate 125 g/ha; for pest or weed control at 500 g/ha: rate 500 g/ha. As to the method: as §1
Test [6] has as its system Avena fatua (AVEFA). The description is as above. To be noted: Avena fatua, evaluated after 14 or 15 days, read-out: Post-emergence activity, AVEFA (100=total damage to plant; 0=no damage to plant); for pest or weed control at 125 g/ha: rate 125 g/ha; for pest or weed control at 500 g/ha: rate 500 g/ha. As for the experimental part:
as §1

The subject of test [7] is Setaria faberi (SETFA). As to the kind of experiment: Pre-emergence herbicidal activity, glasshouse pot test. To be noted: Setaria faberi, 480 h, rate 500 g/ha, evaluated after 20 days, read-out: Pre-emergence activity, SETFA (100=total damage to plant; 0=no damage to plant). As for the experimental part:
as §1, with “Pre-Emergence” for “Post-Emergence”

In test [8] the test system is Alopecurus myosuroides (ALOMY). The test is described as above. To be noted: Alopecurus myosuroides, 480 h, rate 500 g/ha, evaluated after 20 days, read-out: Pre-emergence activity, ALOMY (100=total damage to plant; 0=no damage to plant). As for the experimental part: as §1, with “Pre-Emergence” for “Post-Emergence”
The test system of test [9] is Lolium perenne (LOLPE). The description is as above. To be noted: Lolium perenne, 480 h, rate 500 g/ha, evaluated after 20 days, read-out: Pre-emergence activity, LOLPE (100=total damage to plant; 0=no damage to plant). As for the experimental part:
as §1, with “Pre-Emergence” for “Post-Emergence”

Test [10] relates to Digitaria sanguinalis (DIGSA). The test is described as above. To be noted: Digitaria sanguinalis, 480 h, rate 500 g/ha, evaluated after 20 days, read-out: Pre-emergence activity, DIGSA (100=total damage to plant; 0=no damage to plant). As for the experimental part:
as §1, with “Pre-Emergence” for “Post-Emergence”

Test [11] concerns Echinochloa crus-galli (ECHCG). The test is described as above. To be noted: Echinochloa crus-galli, 480 h, rate 500 g/ha, evaluated after 20 days, read-out: Pre-emergence activity, ECHCG (100=total damage to plant; 0=no damage to plant). As to the method: as §1, with “Pre-Emergence” for “Post-Emergence”
The subject of test [12] is Avena fatua (AVEFA). The description is as above. To be noted: Avena fatua, 480 h, rate 500 g/ha, evaluated after 20 days, read-out: Pre-emergence activity, AVEFA (100=total damage to plant; 0=no damage to plant). As for the experimental part: as §1, with “Pre-Emergence” for “Post-Emergence”

`CCc1cc(C)cc(CC)c1C1=C(OC(=O)OCC(C)C)CC2(CCOCC2)CC1=O` [Compound P20]: the pest or weed control at 125 g/ha is 70% in test [1]; 90% in test [2]; 90% in [3]; 70% in [4]; 100% in test [5]; 100% in [6]. Also, the pest or weed control at 500 g/ha in test [7], in [8], in [9], in test [10], in [11] and in [12] was 100% each time.
Consider `COC1CCC2(CC1)CC(=O)C(c1cc(C)ccc1C)=C(OC(=O)CC(C)(C)C)C2` (stereo not drawn) [Compound P56], for which the pest or weed control at 500 g/ha in test [1] was determined as 70%; in [2] it was 70%; in test [3], 70%; in [4], 80%; in test [5], 80%; in [6], 10%. The pest or weed control at 500 g/ha amounted to 100% in test [7]; 100% in test [8]; 60% in test [9]; 100% in [10]; 80% in [11]; 60% in test [12].
Consider `CCc1cc(C)cc(CC)c1C1=C(O)CC(COCOC)CC1=O` (stereo not drawn) [Compound T23], for which the pest or weed control at 500 g/ha in test [1] was determined as 100%; in test [2] it was 90%; in test [3], 90%; in test [4], 90%; in [5], 100%; in test [6], 80%. The pest or weed control at 500 g/ha in test [7] turned out to be 70%; in [8], 80%; in [9], 80%; in [10], 100%; in test [11] it was 100%; in test [12], 70%.
`CCc1cc(C)cc(CC)c1C1=C(OC(=O)OCC(C)(C)C)CC2(CCOCC2)CC1=O` [Compound P19]: the pest or weed control at 125 g/ha in [1] worked out at 70%; in test [2], 90%; in test [3], 90%; in [4], 70%; in test [5] it was 100%; in [6] it was 90%. In addition, the pest or weed control at 500 g/ha in test [7], in test [8], in test [9], in test [10], in test [11] and in [12] was 100% throughout.
As for `CCSC(C)CC1CC(=O)C(c2c(C)cc(C)cc2CC)=C(O)C1` (stereo not drawn) [Compound T1], the pest or weed control at 500 g/ha was 80% in test [1]; 70% in [2]; 70% in test [3]; 90% in test [4]; 90% in [5]; 70% in test [6]. Also, the pest or weed control at 500 g/ha in test [7] turned out to be 70%; in [8], 60%; in [9], 70%; in test [10], 70%; in test [11], 100%; in test [12] it was 30%.
For the compound `C=CCOC(=O)OC1=C(c2c(CC)cc(C)cc2CC)C(=O)CC2(CCOCC2)C1` [Compound P21], the pest or weed control at 125 g/ha in test [1] is 90%; in test [2], 100%; in test [3], 90%; in test [4], 100%; in test [5] it was 100%; in test [6] it was 100%. For the same compound, the pest or weed control at 500 g/ha in test [7], in test [8], in test [9], in test [10], in test [11] and in [12] was 100% each time.
For `CCc1cc(C)cc(CC)c1C1=C(OC(=O)C2CC2)CC2(CCOCC2)CC1=O` [Compound P9], the pest or weed control at 125 g/ha stood at 90% in test [1]; 80% in [2]; 90% in test [3]; 90% in [4]; 100% in test [5]; 100% in test [6]. In addition, the pest or weed control at 500 g/ha in test [7], in [8], in test [9], in [10], in test [11] and in [12] was 100% in each case.
As to `CCc1cc(C)cc(CC)c1C1=C(O)CC2(CCOCC2)CC1=O` [Compound T22, 9-(2,6-diethyl-4-methylphenyl)-3-oxaspiro[5.5]undecane-8,10-dione], the pest or weed control at 125 g/ha in test [1] is 100%; in [2] it was 100%; in test [3], 90%; in test [4], 100%; in [5], 100%; in test [6] it was 90%. For the same compound, the pest or weed control at 500 g/ha in [7], in test [8], in [9], in test [10], in test [11] and in test [12] was 100% throughout.
